# Active and inactive are the calls of the source. The rule behind the calls is not given here.
# What was measured:
# [1] = target: CDK18/Cyclin Y (Homo sapiens) (UniProt Q07002+Q8ND76); assay: Inhibition of CDK18/CyclinY (unknown origin) at 1 uM preincubated for 10 mins followed by substrate addition measured for 60 to 120 mins by HTRF assay relative to control; format: protein-complex assay; conditions: time 70-130 min
# [2] = target: Ephrin type-A receptor 2 (Homo sapiens) (UniProt P29317); assay: Inhibition of EPHA2 (unknown origin) at 1 uM preincubated for 10 mins followed by substrate addition measured for 60 to 120 mins by HTRF assay relative to control; conditions: time 70-130 min
# Ephrin type-A receptor 2 (Homo sapiens), sequence (P29317 whole entry): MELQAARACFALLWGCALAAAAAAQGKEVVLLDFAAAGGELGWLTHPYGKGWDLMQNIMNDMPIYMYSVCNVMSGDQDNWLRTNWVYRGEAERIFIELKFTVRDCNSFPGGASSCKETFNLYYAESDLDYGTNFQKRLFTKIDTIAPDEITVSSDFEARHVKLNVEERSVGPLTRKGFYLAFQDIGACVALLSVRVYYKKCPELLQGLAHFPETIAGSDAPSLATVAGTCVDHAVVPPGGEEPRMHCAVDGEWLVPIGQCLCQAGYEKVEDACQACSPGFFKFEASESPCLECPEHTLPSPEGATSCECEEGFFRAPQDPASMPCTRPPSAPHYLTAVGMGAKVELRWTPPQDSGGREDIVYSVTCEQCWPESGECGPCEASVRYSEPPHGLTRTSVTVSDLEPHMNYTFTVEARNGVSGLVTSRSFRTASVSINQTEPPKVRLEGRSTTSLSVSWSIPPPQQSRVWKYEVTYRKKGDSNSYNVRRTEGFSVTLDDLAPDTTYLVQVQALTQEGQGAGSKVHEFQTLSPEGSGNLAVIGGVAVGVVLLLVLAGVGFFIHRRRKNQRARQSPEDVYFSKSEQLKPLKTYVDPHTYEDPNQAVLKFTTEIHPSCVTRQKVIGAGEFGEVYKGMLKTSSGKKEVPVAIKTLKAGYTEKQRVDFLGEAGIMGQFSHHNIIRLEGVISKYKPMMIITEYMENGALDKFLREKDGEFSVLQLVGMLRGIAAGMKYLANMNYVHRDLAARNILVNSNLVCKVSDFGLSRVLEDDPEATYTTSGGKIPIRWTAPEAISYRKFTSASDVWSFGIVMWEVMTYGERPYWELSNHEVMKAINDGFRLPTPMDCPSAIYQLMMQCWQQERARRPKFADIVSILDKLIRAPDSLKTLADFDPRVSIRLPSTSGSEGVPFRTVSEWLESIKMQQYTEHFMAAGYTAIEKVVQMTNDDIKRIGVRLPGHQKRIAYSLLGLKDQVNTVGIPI
# [3] = target: Cyclin-dependent kinase 2/cyclin E1 (Homo sapiens) (UniProt P24864+P24941); assay: Inhibition of CDK2/Cyclin E1 (unknown origin) at 1 uM preincubated for 10 mins followed by substrate addition measured for 60 to 120 mins by HTRF assay relative to control; format: protein-complex assay; conditions: time 70-130 min
# [4] = target: Ephrin type-A receptor 5 (Homo sapiens) (UniProt P54756); assay: Inhibition of EPHA5 (unknown origin) at 1 uM preincubated for 10 mins followed by substrate addition measured for 60 to 120 mins by HTRF assay relative to control; conditions: time 70-130 min
# Ephrin type-A receptor 5 (Homo sapiens), sequence (P54756 whole entry): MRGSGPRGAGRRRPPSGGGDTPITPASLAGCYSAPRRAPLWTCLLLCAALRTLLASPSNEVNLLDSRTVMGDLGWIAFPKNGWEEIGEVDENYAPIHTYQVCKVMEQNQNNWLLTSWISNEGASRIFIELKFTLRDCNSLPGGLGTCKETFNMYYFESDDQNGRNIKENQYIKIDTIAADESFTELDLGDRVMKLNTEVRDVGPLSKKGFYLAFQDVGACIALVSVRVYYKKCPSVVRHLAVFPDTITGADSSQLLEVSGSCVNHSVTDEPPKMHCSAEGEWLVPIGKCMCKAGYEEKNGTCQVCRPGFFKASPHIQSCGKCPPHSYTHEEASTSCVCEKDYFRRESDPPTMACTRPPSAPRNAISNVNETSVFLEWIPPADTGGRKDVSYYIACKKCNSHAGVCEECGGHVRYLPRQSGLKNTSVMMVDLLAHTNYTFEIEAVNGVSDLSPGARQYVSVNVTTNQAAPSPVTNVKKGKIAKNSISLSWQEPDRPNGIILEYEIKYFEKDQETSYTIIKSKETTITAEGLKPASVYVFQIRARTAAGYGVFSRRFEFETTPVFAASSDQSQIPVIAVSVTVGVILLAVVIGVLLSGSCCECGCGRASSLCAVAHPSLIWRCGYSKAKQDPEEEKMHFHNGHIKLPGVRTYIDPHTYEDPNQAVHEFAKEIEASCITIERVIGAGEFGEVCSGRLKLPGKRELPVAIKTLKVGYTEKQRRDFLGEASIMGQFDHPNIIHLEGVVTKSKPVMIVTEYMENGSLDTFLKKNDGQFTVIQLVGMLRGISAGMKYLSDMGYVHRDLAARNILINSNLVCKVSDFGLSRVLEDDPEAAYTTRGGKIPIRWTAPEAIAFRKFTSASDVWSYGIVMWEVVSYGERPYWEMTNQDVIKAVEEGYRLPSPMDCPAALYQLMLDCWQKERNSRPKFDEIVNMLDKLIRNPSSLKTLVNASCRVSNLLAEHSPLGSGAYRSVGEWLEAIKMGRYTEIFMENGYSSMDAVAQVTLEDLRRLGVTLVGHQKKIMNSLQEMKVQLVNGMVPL
# [5] = tested on: MDA-MB-231; assay: Antiproliferative activity against human MDA-MB-231 cells incubated for 48 hrs by CCK8 assay; format: functional
# [6] = tested on: HL-60; assay: Effect on cell cycle at S phase in human HL-60 cells at 1 to 10 uM incubated for 48 hrs by […]PI staining based flow cytometry; format: functional; conditions: dose 1-10 µM
# [7] = target: Tyrosine-protein kinase Mer (Homo sapiens) (UniProt Q12866); assay: Inhibition of MER (unknown origin) at 1 uM preincubated for 10 mins followed by substrate addition measured for 60 to 120 mins by HTRF assay relative to control; conditions: time 70-130 min
# Tyrosine-protein kinase Mer (Homo sapiens), sequence (Q12866 whole entry): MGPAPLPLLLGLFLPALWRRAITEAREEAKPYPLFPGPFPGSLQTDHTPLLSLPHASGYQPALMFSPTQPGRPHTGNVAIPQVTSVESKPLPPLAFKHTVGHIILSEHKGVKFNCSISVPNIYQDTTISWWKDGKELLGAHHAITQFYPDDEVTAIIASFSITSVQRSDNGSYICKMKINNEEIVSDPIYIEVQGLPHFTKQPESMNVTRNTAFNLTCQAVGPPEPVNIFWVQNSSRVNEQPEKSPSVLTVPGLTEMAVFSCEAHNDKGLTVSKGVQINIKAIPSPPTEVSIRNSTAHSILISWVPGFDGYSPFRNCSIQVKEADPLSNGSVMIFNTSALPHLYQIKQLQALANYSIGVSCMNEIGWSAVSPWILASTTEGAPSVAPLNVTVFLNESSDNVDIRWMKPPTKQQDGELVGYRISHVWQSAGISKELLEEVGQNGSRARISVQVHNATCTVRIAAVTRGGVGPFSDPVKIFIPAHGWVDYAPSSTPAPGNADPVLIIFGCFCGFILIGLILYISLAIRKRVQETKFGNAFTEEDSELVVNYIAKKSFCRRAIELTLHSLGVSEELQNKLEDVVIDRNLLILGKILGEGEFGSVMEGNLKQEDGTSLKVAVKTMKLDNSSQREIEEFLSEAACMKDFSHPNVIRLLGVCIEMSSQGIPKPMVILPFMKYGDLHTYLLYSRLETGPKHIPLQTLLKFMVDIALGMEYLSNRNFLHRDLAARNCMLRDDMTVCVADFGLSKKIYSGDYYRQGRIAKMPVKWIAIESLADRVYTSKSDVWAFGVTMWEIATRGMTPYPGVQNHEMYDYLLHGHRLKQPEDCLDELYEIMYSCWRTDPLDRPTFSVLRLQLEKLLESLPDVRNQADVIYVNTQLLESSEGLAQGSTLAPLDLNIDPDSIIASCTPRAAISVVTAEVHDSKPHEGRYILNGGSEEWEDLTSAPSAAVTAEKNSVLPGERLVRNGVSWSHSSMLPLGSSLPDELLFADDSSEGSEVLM
# [8] = target: Tyrosine-protein kinase receptor UFO (Homo sapiens) (UniProt P30530); assay: Inhibition of AXL (unknown origin) at 1 uM preincubated for 10 mins followed by substrate addition measured for 60 to 120 mins by HTRF assay relative to control; conditions: time 70-130 min
# Tyrosine-protein kinase receptor UFO (Homo sapiens), sequence (P30530 whole entry, the tested form may be a part): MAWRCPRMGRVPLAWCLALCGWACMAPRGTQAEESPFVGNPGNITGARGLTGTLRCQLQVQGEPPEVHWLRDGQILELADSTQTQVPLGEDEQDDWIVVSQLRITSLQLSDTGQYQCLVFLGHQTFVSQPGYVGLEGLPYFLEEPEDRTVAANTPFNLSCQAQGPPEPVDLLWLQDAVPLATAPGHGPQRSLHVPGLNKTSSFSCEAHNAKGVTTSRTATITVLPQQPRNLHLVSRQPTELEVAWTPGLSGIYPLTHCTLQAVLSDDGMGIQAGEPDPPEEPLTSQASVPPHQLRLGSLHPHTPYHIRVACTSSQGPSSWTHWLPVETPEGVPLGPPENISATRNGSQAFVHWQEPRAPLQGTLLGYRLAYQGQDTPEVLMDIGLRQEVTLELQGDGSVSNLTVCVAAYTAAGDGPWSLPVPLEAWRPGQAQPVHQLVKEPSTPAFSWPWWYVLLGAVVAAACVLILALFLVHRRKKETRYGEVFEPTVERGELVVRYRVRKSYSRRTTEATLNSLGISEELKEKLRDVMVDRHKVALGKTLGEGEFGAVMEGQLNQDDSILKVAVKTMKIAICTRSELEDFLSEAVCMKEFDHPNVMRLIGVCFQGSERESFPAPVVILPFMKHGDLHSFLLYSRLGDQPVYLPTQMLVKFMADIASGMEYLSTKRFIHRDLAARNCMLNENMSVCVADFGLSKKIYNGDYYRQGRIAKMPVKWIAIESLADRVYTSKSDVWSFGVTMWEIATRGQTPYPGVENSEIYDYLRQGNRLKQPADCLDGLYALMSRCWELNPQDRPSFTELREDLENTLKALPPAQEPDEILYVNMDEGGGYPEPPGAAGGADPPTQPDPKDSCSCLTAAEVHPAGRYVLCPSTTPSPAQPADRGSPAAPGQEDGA
# [9] = target: Discoidin domain-containing receptor 2 (Homo sapiens) (UniProt Q16832); assay: Inhibition of DDR2 (unknown origin) at 1 uM preincubated for 10 mins followed by substrate addition measured for 60 to 120 mins by HTRF assay relative to control; conditions: time 70-130 min
# [10] = tested on: HCT-116; assay: Antiproliferative activity against human HCT-116 cells incubated for 48 hrs by CCK8 assay; format: functional
# [11] = target: Tyrosine-protein kinase FRK (Homo sapiens) (UniProt P42685); assay: Inhibition of FRK (unknown origin) at 1 uM preincubated for 10 mins followed by substrate addition measured for 60 to 120 mins by HTRF assay relative to control; conditions: time 70-130 min
# [12] = tested on: HL-60; assay: Induction of apoptosis in human HL-60 cells assessed as necrotic cells at 10 uM incubated for 48 hrs by annexin V-FITC/PI staining based flow cytometry (reference value: 0.26 %); format: functional
# [13] = target: Protein-tyrosine kinase 2-beta (Homo sapiens) (UniProt Q14289); assay: Inhibition of PYK2 (unknown origin) at 1 uM preincubated for 10 mins followed by substrate addition measured for 60 to 120 mins by HTRF assay relative to control; conditions: time 70-130 min
# [14] = target: Ephrin type-B receptor 3 (Homo sapiens) (UniProt P54753); assay: Inhibition of EPHB3 (unknown origin) at 1 uM preincubated for 10 mins followed by substrate addition measured for 60 to 120 mins by HTRF assay relative to control; conditions: time 70-130 min
# [15] = target: Muscle, skeletal receptor tyrosine-protein kinase (Homo sapiens) (UniProt O15146); assay: Inhibition of MUSK (unknown origin) at 1 uM preincubated for 10 mins followed by substrate addition measured for 60 to 120 mins by HTRF assay relative to control; conditions: time 70-130 min
# [16] = Clearance in Sprague-Dawley rat at 10 mg/kg, po; format: ADME, organism-based; conditions: in vivo
# [17] = target: NT-3 growth factor receptor (Homo sapiens) (UniProt Q16288); assay: Inhibition of TRKC (unknown origin) at 1 uM preincubated for 10 mins followed by substrate addition measured for 60 to 120 mins by HTRF assay relative to control; conditions: time 70-130 min
# NT-3 growth factor receptor (Homo sapiens), sequence (Q16288 32-839 limits assumed): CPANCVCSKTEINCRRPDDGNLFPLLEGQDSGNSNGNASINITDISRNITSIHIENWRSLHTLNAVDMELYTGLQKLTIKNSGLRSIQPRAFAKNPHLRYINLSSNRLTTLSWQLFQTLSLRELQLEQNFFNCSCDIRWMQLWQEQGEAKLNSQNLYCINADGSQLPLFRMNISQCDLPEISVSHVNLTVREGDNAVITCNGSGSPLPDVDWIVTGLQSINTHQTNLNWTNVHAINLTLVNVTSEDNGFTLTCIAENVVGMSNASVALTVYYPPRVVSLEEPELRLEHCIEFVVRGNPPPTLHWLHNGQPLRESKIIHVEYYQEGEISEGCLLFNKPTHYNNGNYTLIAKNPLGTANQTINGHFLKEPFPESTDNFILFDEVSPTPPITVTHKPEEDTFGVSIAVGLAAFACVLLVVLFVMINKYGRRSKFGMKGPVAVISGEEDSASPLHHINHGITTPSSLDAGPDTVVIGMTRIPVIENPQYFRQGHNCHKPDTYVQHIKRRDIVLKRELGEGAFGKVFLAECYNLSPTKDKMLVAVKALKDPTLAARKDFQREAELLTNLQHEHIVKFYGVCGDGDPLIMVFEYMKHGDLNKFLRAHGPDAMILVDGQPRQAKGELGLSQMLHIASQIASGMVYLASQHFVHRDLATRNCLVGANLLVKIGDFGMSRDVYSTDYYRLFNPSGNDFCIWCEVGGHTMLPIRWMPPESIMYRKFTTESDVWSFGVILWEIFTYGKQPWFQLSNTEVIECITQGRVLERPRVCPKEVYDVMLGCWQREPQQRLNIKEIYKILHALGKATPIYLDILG
smiles,measurement,setting,value
NC(=O)c1cccc(-c2cnc3[nH]ccc3c2)c1,inhibition,[1],3.47%
same,inhibition,[2],0%
same,inhibition,[3],9.01%
same,inhibition,[4],1%
same,GI50,[5],> 50 µM
same,Activity,[6],inactive
same,inhibition,[7],0%
same,inhibition,[8],12.5%
same,inhibition,[9],0%
same,GI50,[10],> 50 µM
same,inhibition,[11],3.82%
same,Activity,[12],1.79%
same,inhibition,[13],3.1%
same,inhibition,[14],13.5%
same,inhibition,[15],3.63%
same,CL/F,[16],285 mL/min/kg
same,inhibition,[17],10.8%
